Patent EP0684822B1, “CARBOCYCLIC DEOXYGUANOSINE ANALOGS FOR THE TREATMENT OF VIRAL INFECTIONS” (SOUTHERN RESEARCH INSTITUTE, priority 1993, dated 1994)
pKi: −log10 of the molar value. Converted amounts (≈) assume the structure as drawn. “And” between values parts separate entries of the source, which are not always exact repeats. Identical values can stand only once.

Legend:
HSV-1 TK = target: T1, HSV-1 TK (Human herpesvirus 1, UniProt P0DTH5); assay: Competitive inhibition of [3H]-thymidine phosphorylation by partially purified HSV-1 TK; format: biochemical
T1 construct: HSV thymidine kinase (HSV TK) was isolated from HELA (BU25) cells infected with the SW148 strain of HSV-1; made in house; host or cells: HeLa (BU25) thymidine-kinase-deficient cells infected with HSV-1 strain S148/SW148
Description: The Ki's were determined from a plot of the slope of each line versus the concentration of the competitor (D-, L, or D,L-2'CdG) and are summarized below: TABLE 2

HSV-1 (strain 377, TK+) = assay: Antiviral activity against HSV-1; format: cell-based
Description: (§1) D-2'-CdG and L-2'-CdG were tested, alongside D,L-2'-CdG, against both HSV-1 (strain 377, TK+; obtained from Dr. Earl Kern, University of Alabama) and HSV-2 (strain MS, TK+; also obtained from Dr. Earl Kern). In these tests (Table 5), Ara-A and acyclovir (ACV) were the positive control drugs. In four tests vs. HSV-1, the antiviral activity (VR) and potency (MIC50) of D-2'-CdG were approximately the same as those of racemic 2-CdG. L-2'-CdG was only modestly active.

HSV-2 (strain MS, TK+) = assay: Antiviral activity against HSV-2; format: cell-based; conditions: HSV-2
Description: as §1
These compounds were tested against HSV-2(TK^+). The VR of ACV was somewhat higher than the VR values of D-2'-CdG and D,L-2'-CdG, but the values of MIC50 of the two forms of 2'-CdG were lower. In addition, experiments comparing the antiviral activity D-2'-CdG with acyclovir against HSV-1 in human foreskin fibroblasts have shown an even greater potency, in favor of D-2'-CdG.

CMV = CMV yield reduction in MRC5 cell monolayer cultures (plaque assay); format: cell-based, human CMV; conditions: for CMV Yield: virus control 5.5
Description: (§2) The D- and L-enantiomers of 2'-CdG were prepared from racemic C-2,6-DAPR by an enzymatic method as described above Secrist et al. (J. Med. Chem. 30:746, 1987). The effectiveness of racemic-2'-CdG and of D-2'-CdG in reducing CMV yields in MRC5 cell monolayer cultures was determined by a plaque assay with the results set forth in tables 6 and 7.

[1] = tested on: MRC5 cell monolayer cultures; assay: Drug cytotoxicity (gross morphology) in MRC5 cell monolayer cultures; format: cell-based
Description: as §2

HBV = HBV DNA production and replication in 2.2.15 cell cultures; format: cell-based, Hepatitis B virus (HBV); conditions: for INTRACELLULAR HBV DNA INTEG. / INTRACELLULAR HBV DNA MONO. / INTRACELLULAR HBV DNA RI: 24 hours following 10th day of treatment; for HBV DNA IN CULTURE MEDIUM DAY 0: day 0 of treatment
Description: 2'-CdG was tested at three concentrations (50 ng/ml, 500 ng/ml, and 5 ug/ml) against the HBV-producing, human liver cell line, 2.2.15 (Sells et al., J. Virol. 62:2836, 1989). A racemic (D,L) preparation, as well as the purified D and L isomers were tested. For these analyses compounds were tested in duplicate at all concentrations. Ara-AMP and ddG (2'3'-dideoxyguanosine) were used as HBV inhibitory control compounds. […] The nucleoside analog, ddG was used as an additional control compound since ddG has activity against duck hepatitis B virus in chronically infected Peking ducks (Lee et al., Antimicrob. Agents Chemother. 33:336, 1989) and 2'-CdG is also a deoxyguanosine analog.
2.2.15 cells were seeded in 6 well culture plates and grown to confluence over a 10 day period in medium with 5% FBS. Test compounds were then added daily for a continuous 10 day period in medium with 1% dialyzed FBS. […] Compounds were tested, in duplicate cultures, at 3 concentrations covering a 100-fold range. Culture medium (changed daily during the treatment period) was collected and stored for analysis of extracellular (virion) HBV DNA from days 0, 3, 6, and 10 of the treatment period. This allowed for an analysis of the level of HBV virion production during discrete 24 hour intervals and reduced the potential for the buildup of toxic metabolites derived from the test compounds. Treated cells were lysed following the 10th day of treatment for the analysis of intracellular HBV genomic forms. HBV DNA was analyzed in a quantitative manner for (i) overall levels (both extracellular and intracellular DNA) and (ii) the relative rate of HBV replication (intracellular DNA only).
HBV DNA levels were measured by comparison to known amounts of HBV DNA standards applied to every nitrocellulose filter (gel or slot blot) using an AMBIS Beta Scanner. Standard curves, generated by multiple analyses, were used to correlate CPM measurements with relative levels of target HBV DNA. The levels of HBV DNA in each of three classes of intracellular viral genomic forms were individually quantitated: integrated HBV DNA, episomal monomeric genomes and HBV DNA replication intermediates (RI). Integrated HBV DNA was used to normalize the relative amounts of DNA in each lane because the levels of this class of HBV DNA would be expected to remain constant on a per cell basis. The levels of the monomeric HBV genomes and RI were used as an indicator of the relative level of HBV replication.

[2] = tested on: MRC5 cell monolayer cultures; assay: Drug cytotoxicity (gross morphology) in MRC5 cell monolayer cultures; format: cell-based; remark: listed apart in the source

T1 sequence (P0DTH5 whole entry): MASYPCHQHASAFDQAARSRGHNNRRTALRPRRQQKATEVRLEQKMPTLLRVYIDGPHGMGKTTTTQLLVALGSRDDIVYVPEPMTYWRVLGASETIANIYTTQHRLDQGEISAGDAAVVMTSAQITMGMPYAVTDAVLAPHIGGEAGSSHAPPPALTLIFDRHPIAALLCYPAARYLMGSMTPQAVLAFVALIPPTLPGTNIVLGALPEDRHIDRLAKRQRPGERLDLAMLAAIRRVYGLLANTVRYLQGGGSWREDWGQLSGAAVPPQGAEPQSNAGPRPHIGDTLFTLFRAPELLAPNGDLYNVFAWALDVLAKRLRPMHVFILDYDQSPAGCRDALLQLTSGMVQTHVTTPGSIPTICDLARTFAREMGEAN

Work on Nc1nc2c(ncn2[C@H]2C[C@H](O)[C@@H](CO)O2)c(=O)[nH]1 [dGuo, reference compound] yielded a pKi (HSV-1 TK) of 4.98.

In the case of Nc1nc2c(ncn2[C@@H]2C[C@H](CO)[C@@H](O)C2)c(=O)[nH]1 (racemic) [D,L-2'-CdG, (±)-2-amino-1,9-dihydro-[(1α,3β,4α)-3-hydroxy-4(hydroxymethyl)cyclopentyl]-6H-purin-6-one], the pKi (HSV-1 TK) was 5.52, the VR (HSV-1 (strain 377, TK+); HSV-1, range of tests) was 5.3-7.0 and the EC50 (HSV-1 (strain 377, TK+); Human alphaherpesvirus 1, HSV-1, range of tests, read-out: Mic50) was 0.2 to 0.3 µg/mL (≈ 0.754 to 1.13 µM). The “potency relative to ACV” value (HSV-1 (strain 377, TK+); more potent than ACV) was 5-10 times, the VR (HSV-2 (strain MS, TK+)) was 3.7 and the EC50 (HSV-2 (strain MS, TK+); Human alphaherpesvirus 2, read-out: Mic50) was 2.6 µg/mL (≈ 9.8 µM). For the same molecule, the “CMV Yield” value (CMV; 0.032 µg/mL) was 5.4 log10CCID50/mL, the “CMV Yield” value (CMV; 0.1 µg/mL) was 5.0 log10CCID50/mL and the “CMV Yield” value (CMV; 0.32 µg/mL) was 4.5 log10CCID50/mL. For the same molecule, the “CMV Yield” value (CMV; 1.0 µg/mL) was 3.6 log10CCID50/mL, the “CMV Yield” value (CMV; 3.2 µg/mL) was 1.0 log10CCID50/mL and the “CMV Yield” value (CMV; 10 µg/mL) was 0 log10CCID50/mL. It also gave an inhibition at 0.032 µg/mL (CMV; Human betaherpesvirus 5, MRC5, 0.032 µg/mL, read-out: Reduction (%) of CPE by CdG at Time of Harvest) of 0%, an inhibition at 0.1 µg/mL (CMV; Human betaherpesvirus 5, MRC5, 0.1 µg/mL, read-out: Reduction (%) of CPE by CdG at Time of Harvest) of 0% and an inhibition at 0.32 µg/mL (CMV; Human betaherpesvirus 5, MRC5, 0.32 µg/mL, read-out: Reduction (%) of CPE by CdG at Time of Harvest) of 20%. It also gave an inhibition at 1 µg/mL (CMV; Human betaherpesvirus 5, MRC5, 1.0 µg/mL, read-out: Reduction (%) of CPE by CdG at Time of Harvest) of 95%, an inhibition at 3.2 µg/mL (CMV; Human betaherpesvirus 5, MRC5, 3.2 µg/mL, read-out: Reduction (%) of CPE by CdG at Time of Harvest) of 100% and an inhibition at 10 µg/mL (CMV; Human betaherpesvirus 5, MRC5, 10 µg/mL, read-out: Reduction (%) of CPE by CdG at Time of Harvest) of 100%. For the same molecule, the EC50 (CMV; Human betaherpesvirus 5, MRC5 cells, read-out: MIC50) was 0.069 µg/mL (≈ 0.26 µM), the “Drug Cytotoxicity (Gross Morphology)” value ([1]; 0.032 µg/mL) was 0 and the “Drug Cytotoxicity (Gross Morphology)” value ([1]; 0.1 µg/mL) was 0. The “Drug Cytotoxicity (Gross Morphology)” value ([1]; 1.0 µg/mL) was 0, the “Drug Cytotoxicity (Gross Morphology)” value ([1]; 32 µg/mL) was “toxic” and the “INTRACELLULAR HBV DNA INTEG.” value (HBV; 50ng/ml) was 1.3 PG/UG CELL DNA and 1.2 PG/UG CELL DNA. The “INTRACELLULAR HBV DNA MONO.” value (HBV; 50ng/ml) was 2.1 PG/UG CELL DNA and 1.4 PG/UG CELL DNA, the “INTRACELLULAR HBV DNA RI” value (HBV; 50ng/ml) was 12 PG/UG CELL DNA and 18 PG/UG CELL DNA and the “HBV DNA IN CULTURE MEDIUM DAY 0” value (HBV; 50ng/ml) was 120 pg/mL and 95 pg/mL. For the same molecule, the “HBV DNA IN CULTURE MEDIUM DAY 3” value (HBV; 50ng/ml) was 88 pg/mL and 75 pg/mL, the “HBV DNA IN CULTURE MEDIUM DAY 6” value (HBV; 50ng/ml) was 55 pg/mL and 77 pg/mL and the “HBV DNA IN CULTURE MEDIUM DAY 10” value (HBV; 50ng/ml) was 11 pg/mL and 6 pg/mL. The “INTRACELLULAR HBV DNA INTEG.” value (HBV; 500ng/ml) was 1.4 PG/UG CELL DNA and 1.5 PG/UG CELL DNA, the “INTRACELLULAR HBV DNA MONO.” value (HBV; 500ng/ml) was 1.8 PG/UG CELL DNA and 2.0 PG/UG CELL DNA and the “HBV DNA IN CULTURE MEDIUM DAY 0” value (HBV; 500ng/ml) was 89 pg/mL and 90 pg/mL. The “HBV DNA IN CULTURE MEDIUM DAY 3” value (HBV; 500ng/ml) was 41 pg/mL and 55 pg/mL, the “HBV DNA IN CULTURE MEDIUM DAY 10” value (HBV; 500ng/ml) was 0.1 pg/mL and 0.2 pg/mL and the “INTRACELLULAR HBV DNA INTEG.” value (HBV; 5 ug/ml) was 1.0 PG/UG CELL DNA and 1.6 PG/UG CELL DNA. The “INTRACELLULAR HBV DNA MONO.” value (HBV; 5 ug/ml) was 1.9 PG/UG CELL DNA and 1.7 PG/UG CELL DNA, the “HBV DNA IN CULTURE MEDIUM DAY 0” value (HBV; 5 ug/ml) was 87 pg/mL and 88 pg/mL and the “HBV DNA IN CULTURE MEDIUM DAY 3” value (HBV; 5 ug/ml) was 16 pg/mL and 24 pg/mL. For the same molecule, the “HBV DNA IN CULTURE MEDIUM DAY 6” value (HBV; 5 ug/ml) was 0.3 pg/mL and 0.4 pg/mL, the “HBV DNA IN CULTURE MEDIUM DAY 10” value (HBV; 5 ug/ml) was 0 pg/mL and the MIC (HBV; Hepatitis B virus, 240 h, HBV replication in 2.2.15 cells, read-out: minimal inhibitory concentration) was ~0.05 µg/mL (≈ 0.188 µM). The “Drug Cytotoxicity (Gross Morphology)” value ([2]; 0.32 µg/mL) was 0, the “Drug Cytotoxicity (Gross Morphology)” value ([2]; 3.2 µg/mL) was “v. sl. toxicity” and the “Drug Cytotoxicity (Gross Morphology)” value ([2]; 10 µg/mL) was “sl. toxicity”.

Nc1ncnc2c1ncn2[C@@H]1O[C@H](COP(=O)(O)O)[C@@H](O)[C@@H]1O [ARA-AMP, adenine arabinoside monophosphate, reference compound] was tested, and the “INTRACELLULAR HBV DNA INTEG.” value (HBV; 300 UG/ML) was 1.3 PG/UG CELL DNA and 1.1 PG/UG CELL DNA, the “INTRACELLULAR HBV DNA MONO.” value (HBV; 300 UG/ML) was 0.1 PG/UG CELL DNA and the “INTRACELLULAR HBV DNA RI” value (HBV; 300 UG/ML) was 0.2 PG/UG CELL DNA and 0.3 PG/UG CELL DNA. The “HBV DNA IN CULTURE MEDIUM DAY 0” value (HBV; 300 UG/ML) was 100 pg/mL and 95 pg/mL, the “HBV DNA IN CULTURE MEDIUM DAY 3” value (HBV; 300 UG/ML) was 25 pg/mL and 30 pg/mL and the “HBV DNA IN CULTURE MEDIUM DAY 6” value (HBV; 300 UG/ML) was 0 pg/mL. The “HBV DNA IN CULTURE MEDIUM DAY 10” value (HBV; 300 UG/ML) was 0 pg/mL.
